# According to patent US11382956B2, “Amylin analogues” (Zealand Pharma A/S, priority 2016, dated 2022):
# Numbered stars: 1 amine (or outer) side, 2 acyl side, 3 side chain; on linkers, the order of the positions; unused ones are H or OH. Bridge positions count the residues as written; N and C are the ends. Square brackets hold non-standard residues; d marks the D form. Peptide text beside a SMILES is read from it. * marks the point of attachment. C20 diacid = O=C(O)CCCCCCCCCCCCCCCCCCC(=O)*; γGlu = O=C(O)[C@H](CCC(=O)[*:2])N[*:1]; Hyp = O=C(O)[C@@H]1C[C@@H](O)CN1; NMeI = CC[C@H](C)[C@H](NC)C(=O)O; Aad = N[C@@H](CCCC(=O)O)C(=O)O; Orn = NCCC[C@H](N)C(=O)O; Sar = CNCC(=O)O
# How the values were obtained:
# [1] = target: T1, recombinant human calcitonin receptor (hCT-R) (Homo sapiens, UniProt P30988); test: hCT-R cAMP assay (AlphaScreen) in 1321N1 cells; assay type: cell-based; details: cAMP formation, 45 min stimulation
# T1 construct: host or cells: human astrocytoma cell line 1321N1
# T1 sequence (P30988 25-474): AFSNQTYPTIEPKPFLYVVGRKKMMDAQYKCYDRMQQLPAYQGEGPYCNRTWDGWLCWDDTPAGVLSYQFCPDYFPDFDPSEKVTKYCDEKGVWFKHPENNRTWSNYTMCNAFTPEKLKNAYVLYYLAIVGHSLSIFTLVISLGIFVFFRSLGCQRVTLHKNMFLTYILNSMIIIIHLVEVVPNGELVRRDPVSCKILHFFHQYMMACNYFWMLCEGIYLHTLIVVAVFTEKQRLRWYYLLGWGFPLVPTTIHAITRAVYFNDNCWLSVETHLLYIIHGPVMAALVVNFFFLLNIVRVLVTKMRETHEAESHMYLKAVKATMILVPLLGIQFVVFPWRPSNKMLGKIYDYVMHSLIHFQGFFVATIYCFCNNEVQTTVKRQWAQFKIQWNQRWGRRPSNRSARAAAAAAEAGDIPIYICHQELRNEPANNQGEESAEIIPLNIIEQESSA
# In short: (§1)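 1321N1 astrocytoma cells expressing recombinant human calcitonin receptor alone or with RAMP3 (AMY3) stimulated 45 min at room temperature with peptide in IBMX-containing buffer. cAMP quantified by AlphaScreen after 1 h bead incubation; EC50 fitted from at least 7 concentrations.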
# [2] = target: T2, recombinant human amylin 3 receptor (hAMYR3) (Homo sapiens, UniProt O60896+P30988); test: hAMYR3 cAMP assay (AlphaScreen) in 1321N1 cells; assay type: cell-based; details: cAMP formation, 45 min stimulation
# T2 construct: host or cells: human astrocytoma cell line 1321N1
# T2 sequence (P30988 25-474): T1 sequence (P30988 25-474)
# T2 sequence (O60896 24-148 partner): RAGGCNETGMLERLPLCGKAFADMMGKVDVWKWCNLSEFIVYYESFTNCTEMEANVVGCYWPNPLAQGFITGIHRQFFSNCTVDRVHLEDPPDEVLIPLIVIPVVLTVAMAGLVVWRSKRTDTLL
# In short: as §1
# [3] = Assessment of physical stability: fibril formation by Thioflavin T fluorescence; assay type: physicochemical; set-up: key: FND = fibrillation not detected; FD = fibrillation detected; details: 1 mg/mL peptide; for Fibrillation (in buffer) pH4 acetate: 50 mM acetate buffer pH 4.0, 96 hours at 40° C.; for Fibrillation (in buffer) pH7 histidine: 50 mM histidine buffer pH 7.0, 96 hours at 40° C.; for Fibrillation (in buffer) pH7 phosphate: 50 mM phosphate buffer pH 7.0, 96 hours at 40° C.
# In short: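 Test peptide at 1 mg/mL with 40 μM ThT in 50 mM phosphate pH 7.0, 50 mM histidine pH 7.0, or 50 mM acetate pH 4.0, in triplicate. Fluorescence read every 10 min after 300 s agitation for 96 hours at 40° C; significant intensity rise scored as fibrillation detected (FD).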
# [4] = Assessment of chemical stability in 40 mM buffers at 40° C. (RP-HPLC); assay type: physicochemical; details: 1 mg/mL; for % degradation after 72 h at 40° C. pH4 acetate: acetate buffer pH 4, 72 h; for % degradation after 72 h at 40° C. pH6 phosphate: phosphate buffer pH 6, 72 h; for % degradation after 14 days at 40° C. pH6 phosphate: phosphate buffer pH 6, 14 days; for % degradation after 72 h at 40° C. pH7 phosphate: phosphate buffer pH 7, 72 h; for % degradation after 14 days at 40° C. pH7 phosphate: phosphate buffer pH 7, 14 days
# In short: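 Peptides at 1 mg/mL in 40 mM acetate pH 4 or phosphate pH 6 and 7 were held at 40° C for 3 and 14 days. Main-peak area-% by C8 RP-HPLC, UV 220 nm; % degradation = change in main-peak area-% versus t=0.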
# [5] = Pharmacokinetic (PK) profiling in rats; details: male, Sprague Dawley, plasma; rat, single sc bolus 30 nmol/kg; read-out: in vivo half life t1/2 (plasma terminal elimination half-life) (converted)
# Protocol: Sprague Dawley male rats were given a single subcutaneous (sc) bolus of each peptide to be tested, as specified below.
# 30 nmol/kg doses of compound were administered. Blood samples were drawn from the tail vein prior to dosing and at 24 and 96 hours after dosing. The rats were euthanized immediately after the last blood sampling by concussion and cervical dislocation.
# The dosing vehicle used for each test peptide was a mannitol-containing histidine buffer (pH 7.0). Plasma samples were analyzed after precipitation with ethanol by liquid chromatography mass spectrometry (LC-MS/MS). Mean plasma concentrations were used for calculation of the pharmacokinetic parameters.
# Plasma terminal elimination half-life (t1/2) was determined as In(2)/λz, where λz is the magnitude of the slope of the log linear regression of the log concentration versus time profile during the terminal phase.
# [6] = Effect on acute food intake and body weight in normal Sprague Dawley rats; assay type: in vivo, Sprague Dawley (SD) rats; details: Dose: 30 nmol/kg sc, vehicle-corrected
# [7] = cited from earlier work
SMILES,EC50 [1],EC50 [2],Fibrillation (in buffer) pH4 acetate [3],Fibrillation (in buffer) pH7 histidine [3],Fibrillation (in buffer) pH7 phosphate [3],% degradation after 72 h at 40° C. pH4 acetate [4],% degradation after 72 h at 40° C. pH6 phosphate [4],% degradation after 14 days at 40° C. pH6 phosphate [4],% degradation after 72 h at 40° C. pH7 phosphate [4],% degradation after 14 days at 40° C. pH7 phosphate [4],half-life [5],Body weight reduction in % at 48 h [6],Food intake reduction in % at 48 h [6],"% degradation after 14 days at 40° C. pH4 acetate ([4]; acetate buffer pH 4, 14 days)",effect on body weight in human trials [7]
"CC[C@H](C)[C@@H](C(=O)N[C@@H](CC(C)C)C(=O)N[C@@H](CO)C(=O)N[C@@H](CO)C(=O)N[C@H](C(=O)N[C@@H](CCC(=O)O)C(=O)N[C@H](C(=O)NCC(=O)N[C@@H](CO)C(=O)N[C@@H](CC(N)=O)C(=O)N[C@H](C(=O)N1C[C@H](O)C[C@H]1C(N)=O)[C@@H](C)O)C(C)C)[C@@H](C)O)N(C)C(=O)[C@H](C)NC(=O)CN(C)C(=O)[C@H](Cc1ccccc1)NC(=O)[C@H](CO)NC(=O)[C@H](CO)NC(=O)[C@H](CCCNC(=N)N)NC(=O)[C@H](CCC(N)=O)NC(=O)[C@H](CC(C)C)NC(=O)[C@H](Cc1ccccc1)NC(=O)[C@H](CCCC(=O)O)NC(=O)[C@H](C)NC(=O)[C@H](CC(C)C)NC(=O)[C@H](CCCNC(=N)N)NC(=O)[C@H](CCC(=O)O)NC(=O)[C@@H](NC(=O)[C@H](C)NC(=O)[C@@H]1CCCNC(=O)C[C@H](NC(=O)[C@H](CCCNC(=N)N)NC(=O)CC[C@H](NC(=O)CCCCCCCCCCCCCCCCCCC(=O)O)C(=O)O)C(=O)NCC(=O)N[C@@H]([C@@H](C)O)C(=O)N[C@@H](C)C(=O)N[C@@H]([C@@H](C)O)C(=O)N1)[C@@H](C)O [Compound 20, [19CD]-isoGlu-RD()GTAT-Orn()-ATERLA-Aad-FLQRSSF-Gly(Me)-A-Ile(Me)-LSSTEVGSNT-Hyp-NH2] ({C20 diacid-γGlu}-RDGTAT[Orn]ATERLA[Aad]FLQRSSF[Sar]A[NMeI]LSSTEVGSNT[Hyp]-NH2; lactam 2-7)",0.009 nM,0.003 nM,FD,FND,FND,1.0%,1.3%,<1%,2.0%,3.7%,31.1 h,7.8%,49%,–,–
"CC[C@H](C)[C@@H](C(=O)N[C@@H](CC(C)C)C(=O)N[C@@H](CO)C(=O)N[C@@H](CO)C(=O)N[C@H](C(=O)N[C@@H](CCC(=O)O)C(=O)N[C@H](C(=O)NCC(=O)N[C@@H](CO)C(=O)N[C@@H](CC(N)=O)C(=O)N[C@H](C(=O)N1C[C@H](O)C[C@H]1C(N)=O)[C@@H](C)O)C(C)C)[C@@H](C)O)N(C)C(=O)[C@H](C)NC(=O)CN(C)C(=O)[C@H](Cc1ccccc1)NC(=O)[C@H](CO)NC(=O)[C@H](CO)NC(=O)[C@H](CCCNC(=N)N)NC(=O)[C@H](CCC(N)=O)NC(=O)[C@H](CC(C)C)NC(=O)[C@H](Cc1ccccc1)NC(=O)[C@H](CCCC(=O)O)NC(=O)[C@H](C)NC(=O)[C@H](CC(C)C)NC(=O)[C@H](CCCNC(=N)N)NC(=O)[C@H](CCC(=O)O)NC(=O)[C@@H](NC(=O)[C@H](C)NC(=O)[C@@H]1CCCCNC(=O)C[C@H](NC(=O)[C@H](CCCNC(=N)N)NC(=O)CC[C@H](NC(=O)CCCCCCCCCCCCCCCCCCC(=O)O)C(=O)O)C(=O)NCC(=O)N[C@@H]([C@@H](C)O)C(=O)N[C@@H](C)C(=O)N[C@@H]([C@@H](C)O)C(=O)N1)[C@@H](C)O [Compound 35, [19CD]-isoGlu-RD()GTATK()ATERLA-Aad-FLQRSSF-Gly(Me)-A-Ile(Me)-LSSTEVGSNT-Hyp-NH2] ({C20 diacid-γGlu}-RDGTATKATERLA[Aad]FLQRSSF[Sar]A[NMeI]LSSTEVGSNT[Hyp]-NH2; lactam 2-7)",0.066 nM,0.028 nM,FND,FND,FND,<1%,<1%,<1%,1.4%,<1%,36.1 h,12%,72%,2%,–
"CC[C@H](C)[C@@H](C(=O)N[C@@H](CC(C)C)C(=O)N[C@@H](CO)C(=O)N[C@@H](CO)C(=O)N[C@H](C(=O)N[C@@H](CCC(=O)O)C(=O)N[C@H](C(=O)NCC(=O)N[C@@H](CO)C(=O)N[C@@H](CC(N)=O)C(=O)N[C@H](C(=O)N1C[C@H](O)C[C@H]1C(N)=O)[C@@H](C)O)C(C)C)[C@@H](C)O)N(C)C(=O)[C@H](C)NC(=O)CN(C)C(=O)[C@H](Cc1ccccc1)NC(=O)[C@@H](NC(=O)[C@@H](NC(=O)[C@H](CCCNC(=N)N)NC(=O)[C@H](CCC(N)=O)NC(=O)[C@H](CC(C)C)NC(=O)[C@H](Cc1ccccc1)NC(=O)[C@H](CCCC(=O)O)NC(=O)[C@H](C)NC(=O)[C@H](CC(C)C)NC(=O)[C@H](CCCNC(=N)N)NC(=O)[C@H](CCC(=O)O)NC(=O)[C@@H](NC(=O)[C@H](C)NC(=O)[C@@H]1CCCCNC(=O)C[C@H](NC(=O)[C@H](CCCNC(=N)N)NC(=O)CC[C@H](NC(=O)CCCCCCCCCCCCCCCCCCC(=O)O)C(=O)O)C(=O)NCC(=O)N[C@@H]([C@@H](C)O)C(=O)N[C@@H](C)C(=O)N[C@@H]([C@@H](C)O)C(=O)N1)[C@@H](C)O)[C@@H](C)O)[C@@H](C)O [Compound 38, [19CD]-isoGlu-RD()GTATK()ATERLA-Aad-FLQRTTF-Gly(Me)-A-Ile(Me)-LSSTEVGSNT-Hyp-NH2] ({C20 diacid-γGlu}-RDGTATKATERLA[Aad]FLQRTTF[Sar]A[NMeI]LSSTEVGSNT[Hyp]-NH2; lactam 2-7)",0.114 nM,0.06 nM,FD,FND,FND,<1%,<1%,–,<1%,<1%,31.8 h,8.2%,43%,–,–
CC[C@H](C)[C@H](NC(=O)[C@@H]1CCCN1C(=O)CNC(=O)[C@H](Cc1ccccc1)NC(=O)[C@H](CC(N)=O)NC(=O)[C@H](CC(N)=O)NC(=O)[C@H](CO)NC(=O)[C@H](CO)NC(=O)[C@H](Cc1c[nH]cn1)NC(=O)[C@@H](NC(=O)[C@H](CC(C)C)NC(=O)[C@H](Cc1ccccc1)NC(=O)[C@H](CC(N)=O)NC(=O)[C@H](C)NC(=O)[C@H](CC(C)C)NC(=O)[C@H](CCCNC(=N)N)NC(=O)[C@H](CCC(N)=O)NC(=O)[C@@H](NC(=O)[C@H](C)NC(=O)[C@@H]1CSSC[C@H](NC(=O)[C@@H](N)CCCCN)C(=O)N[C@@H](CC(N)=O)C(=O)N[C@@H]([C@@H](C)O)C(=O)N[C@@H](C)C(=O)N[C@@H]([C@@H](C)O)C(=O)N1)[C@@H](C)O)C(C)C)C(=O)N[C@@H](CC(C)C)C(=O)N1CCC[C@H]1C(=O)N1CCC[C@H]1C(=O)N[C@H](C(=O)N[C@@H](CC(N)=O)C(=O)N[C@H](C(=O)NCC(=O)N[C@@H](CO)C(=O)N[C@@H](CC(N)=O)C(=O)N[C@H](C(=O)N[C@@H](Cc1ccc(O)cc1)C(N)=O)[C@@H](C)O)C(C)C)[C@@H](C)O [pramlintide],–,–,–,–,–,–,–,–,–,–,–,–,–,–,reduce body weight or reduce weight gain
